The results in this text go back to patent US9427455B2, “Use of the pat nanopeptide in the treatment of autoimmune diseases” (CLL PHARMA, priority 2008, dated 2016).

Common to all, as to format: in vivo
The test system of assay [1] is arthritic rats of OFA (SD) strain. Briefly: Arthritis induced by Freund's adjuvant (Mycobacterium butyricum) in the rat. To be noted: for volume of the leg: 5 times per week during 3 weeks, from Day 14 until Day 21, FIG. 4; for hypersensitivity measured by the plantar test: Day 16, equivalent to non-arthritic reference group, FIG. 6; for erythrocyte sedimentation rate (ESR): FIG. 7; for macroscopic clinical score: FIG. 5. Here is the method: We used the model of arthritis induced by Freund' adjuvant as described in the article of Milan et al., J Neurosci 1986; 6: 899-906. The rats are administered with Mycobacterium butyricum develop usually a severe polyarthritis which resembles to that in human. Rats of OFA (SD) strain (Oncins France Strain A) weighing approximately 200 g received an […] of a 10 mg/ml Mycobacterium butyricum solution at the articulation of the right ankle. For all the measured parameters, the rats were divided into 5 groups (8 rats/group) in the following way: • reference group: the rats received a paraffin injection instead of the solution of Mycobacterium butyricum (no induced arthritis) then receive an intraperitoneal injection of saline solution; • arthritic group+injection of saline solution; • arthritic group+intraperitoneal injection of 3 mg/kg indomethacin; the indomethacin being a NSAID classically used as reference in this kind of test; • arthritic group+intraperitoneal injection of 0.4 […]; […] The products are administered 5 times per week during 3 weeks. At the beginning of the experimentation (day 0), one determines the initial values for the different parameters (volume of the leg, macroscopic clinical score, sedimentation test and hypersensitivity). During the experiment, several parameters are measured: • the volume of the leg (“paw latency duration”); • the globular sedimentation test (“Erythrocyte Sedimentation rate”); • the macroscopic score: • “0” means that no sign of arthritis was detected; • “1” means that a swelling or an inflammation was detected on a leg; • “2” means that a swelling or an inflammation was detected on two legs; • “3” means that a swelling or an inflammation was detected on at lest 3 legs; • “4” means that a swelling or an inflammation was detected on the 4 legs. • hypersensitivity according to the plantar test: carried out according to Yukinori Nagakura and al, Allodynia and hyperalgesia in adjuvant-induced arthritic rats: time course of progression and efficacy of analgesics, JPET 306: 490-497, 2003, or in Andersen M L and al “Evaluation of acute and chronic treatments with Harpagophytum procumbens one Freund's adjuvant-induced arthritis in rats”. J. Ethnopharmacol. 2004 April; 91 (2-3): 325-30; • the erythrocyte sedimentation rate (ESR): the increase in this one generally accompanies the clinical symptoms met in induced arthritis. The ESR is measured in the arthritic rats (at Day 21) 1 hour and 2 hours after the injection of PAT or indomethacin, according to the protocol of Mahajan S G, et al., Protective Effect of Ethanolic Extract of Seeds of Moringa will oleifera Lam. Against Inflammation Associated with Development of Arthritis in Rats. J. Immunotoxicol. 2007 January; 4 (1): 39-47.

A further assay deals with IL-6. The experiment in a line: Expression of IL-6 in colon by quantitative RT-PCR, TNBS colitis mice. To be noted: 25 μg of PAT per mouse; TNBS alone increases around 30 fold; FIG. 3. As to the method: (§1) Colitis is induced in C57BL/6J mice of 7-8 weeks old after TNBS administration per rectal route according to the protocol described by Sugimoto K. et al (Gastroenterology 2002: 123; 1912-1922). The administration is performed directly in the lumen of the colon (over a 3-4 cm length) by using a 1 ml-syringe and a polyethylene cannula (Intradermic PE-20, Becton Dickinson) of a 100 μl solution containing 2.5 mg of TNBS dissolved beforehand in 50 μl of ethanol. After the administration, the mice are maintained 30 seconds in vertical position. […]
(§2) The latter is carried out by denaturation with guanidine thiocyanate; cDNA synthesis is made starting from 1 ng of RNA using a kit (Euromedex). A quantitative PCR is carried out; the reaction is performed in a 25 μl final volume by using SYBR kit (Eurogentec). Stimulation rate is determined for each cytokine compared to reference cDNA which is that corresponding to […] ribosomal phosphoprotein.

Another assay deals with IL-10. Briefly: Expression of IL-10 in colon by quantitative RT-PCR, TNBS colitis mice. Conditions: PAT 25 μg/mouse before TNBS; not increased with TNBS alone; FIG. 3. Here is the method:
as §1, §2

For assay [2], the system named is C57BL/6J mice with colitis induced by TNBS. The experiment in a line: TNBS-induced experimental colitis in mice (animal weight, colon inflammation). To be noted: for effect on animal weight (weight loss induced by TNBS): FIG. 1. Here is the method:
The PAT nonapeptide was studied in animal model of experimental colitis. In mice, one of the clearly established IBD colitis models is the one in which the induction is performed by the use of trinitrobenzene sulphonic acid (TNBS). TNBS is a hapten which, when it is administered by intrarectal route, induced a severe colonic transmural inflammation; the induced effects present many similarities with those induced by Crohn's disease (Elson C O et al Experimental models of inflammatory bowel disease. Gastroenterology 2003; 10: 1344-67; Strober W et al., The immunology of mucosal models of inflammation. Annu Rev Immunol 2002; 20: 495-49).
Colitis is induced in C57BL/6J mice of 7-8 weeks old after TNBS administration per rectal route according to the protocol described by Sugimoto K. et al (Gastroenterology 2002: 123; 1912-1922). The administration is performed directly in the lumen of the colon (over a 3-4 cm length) by using a 1 ml-syringe and a polyethylene cannula (Intradermic PE-20, Becton Dickinson) of a 100 μl solution containing 2.5 mg of TNBS dissolved beforehand in 50 μl of ethanol. After the administration, the mice are maintained 30 seconds in vertical position.
The design of the study is the following: • one control batch of 5 mice treated by ethanol/PBS mixture (vol/vol): • one test batch of 10 mice to which TNBS is administered (2.5 mg in 50% ethanol); • one test batch of 10 mice to which TNBS and nonapeptide are administered with the amount of 1 μg/mouse; • one test batch of 10 mice to which TNBS and nonapeptide are administered with the amount of 5, μg/mouse; • one batch of 10 mice to which TNBS and nonapeptide are administered with the amount of 25 μg/mouse.
The PAT nonapeptide is administered by intraperitoneal route 30 minutes before the TNBS induction of colitis. Several mice (5 of each test batch; 2 of control batch) are sacrificed at day 1 after TNBS induction. The remaining mice (5 of each test batch; 3 of control batch) are sacrificed at day 3 after TNBS induction.
The animals are weighed every day until the sacrifice.
As soon as the animals are sacrificed, the colon is sampled and a macroscopic analysis is carried out.

Another assay relates to IL-1β. The experiment in a line: Expression of IL-1β in colon by quantitative RT-PCR, TNBS colitis mice. Conditions: 25 μg of PAT; TNBS alone increases almost 50 fold; FIG. 3. Here is the method: as §1, §2
A further assay has as its system TNF-α. The experiment in a line: Expression of TNF-α in colon by quantitative RT-PCR, TNBS colitis mice. To be noted: PAT 25 μg/mouse; TNBS alone increases around 4 fold; FIG. 3. As to the method:
as §1, §2

For `COc1ccc2c(c1)c(CC(=O)O)c(C)n2C(=O)c1ccc(Cl)cc1` [indomethacin, reference compound], in assay [1] (indomethacin 3 mg/kg i.p.), the “volume of the leg” value was “notable reduction of inflammation and of the volume of the leg”; the “hypersensitivity measured by the plantar test” value is “hypersensitivity is very reduced”. In assay [1] (indomethacin 3 mg/kg i.p., Day 21), the “erythrocyte sedimentation rate (ESR)” value was “reduced in a very important way”. Besides, in assay [1] (indomethacin 3 mg/kg i.p., compared to arthritic rats given saline solution), the macroscopic clinical score entry is on record as “significant reduction in the macroscopic score”.
As for “H EAKSQGGSD-NH2 (H-EAKSQGGSD-NH2) [PAT nonapeptide]”, the IL-6 expression entry with IL-6 is recorded as “decreases to a significant extent”. In addition, in assay [1] (PAT 0.4 μg/kg (i.p), leg, peripheral hypersensitivity and ESR), the progression of arthritis entry is on record as “reduce very significantly the progression of arthritis”. In addition, the “efficacy compared with indomethacin 3 mg/kg” value in assay [1] (PAT 0.4 μg/kg (i.p.), a dose 7500 fold lower than indomethacin) was “at least a similar efficacy”. In addition, the “volume of the leg” value in assay [1] (PAT 0.4 μg/kg i.p.) was “notable reduction of inflammation and of the volume of the leg”; in assay [1] (PAT 4 μg/kg i.p.) it was “notable reduction of inflammation and of the volume of the leg”. Further, the “hypersensitivity measured by the plantar test” value in assay [1] (PAT 0.4 μg/kg i.p.) and in assay [1] (PAT 4 μg/kg i.p.) was “hypersensitivity is very reduced” each time. Besides, the “erythrocyte sedimentation rate (ESR)” value was “more reduced ESR” in assay [1] (PAT 0.4 μg/kg i.p., Day 21, 1 hour after the injection, compared to indomethacin group, very similar to reference rats) and “did not have a significant effect on the reduction of ESR” in assay [1] (PAT 4 μg/kg i.p., Day 21). For the same molecule, the macroscopic clinical score result was “significant reduction in the macroscopic score” in assay [1] (PAT 0.4 μg/kg i.p., compared to arthritic rats given saline solution) and “shows less effects” in assay [1] (PAT 4 μg/kg i.p., compared with 0.4 μg/kg). In addition, the “increase of IL-10 anti-inflammatory cytokine level” value with IL-10 was “more than 3 fold”. In addition, the “effect on animal weight (weight loss induced by TNBS)” value is “do not show a significant effect” in assay [2] (PAT 1 μg/mouse i.p. 30 minutes before TNBS), “do not show a significant effect” in assay [2] (PAT 5 μg/mouse i.p. 30 minutes before TNBS) and “allows to limit this weight loss” in assay [2] (PAT 25 μg/mouse i.p. 30 minutes before TNBS). The “colon length, on average” value in assay [2] (TNBS-PAT treated mice, control mice 7 cm, TNBS-treated mice 5 cm) is given as 6.5 cm. Moreover, the “colon inflammation caused by TNBS rectal injection (macroscopic analysis)” value in assay [2] (i.p. 30 minutes before TNBS, dose dependant, maximal effect at 25 μg/mouse, FIG. 2) is given as “reduce to a significant extent inflammation”. In the assay on IL-1β, the IL-1β cytokine expression result was “decreases to a significant extent”. In addition, the TNF-α expression result with TNF-α was “the increase is notably reduced”.
